Data as given in patent publication US20190262469A1 (priority 2015, published 2019).
≈ marks a conversion by molar mass, not a printed value. Where no end group is shown, it is not given here.

B1: EB2-binding peptide identified via phage display, conjugated to the supported lipid bilayer of DOPC protocells (peptide)
peptide: TGAILHP
modifications: also: conjugated to protocell lipid bilayer, linker not described
notes: also called ephrin B2-targeting peptide; targeting peptide

Legend:
alphaviruses = details: cited from earlier work
[1] = in vivo; cited from earlier work
E. coli ER2420/pACYC177 = assay: microbe, parasite or virus in culture; assay type: cell-based; details: Escherichia coli, test array/20-well test strips (FIG. 34, 35)
[2] = buffer; cited from earlier work
[3] = tested on: E. coli ER2420 with pACYC177 or pACYC184; assay type: cell-based
[4] = biological target: T1, human ephrin B2 (EB2) expressed on cells (CHO-K1 transfected to express ephrin B2) (human, UniProt P52799 28-333); assay: fluorescence of labelled DOPC protocells modified with the ligand on ephrin B2-expressing cells, against unmodified DOPC protocells (FIGS. 3A-B)
T1 construct: whole, on cells; Cellular receptor for Nipah and Hendra viruses; also called CHO-K1/EB2; CHO-K1/ephrin B2
T1 sequence (P52799 28-333): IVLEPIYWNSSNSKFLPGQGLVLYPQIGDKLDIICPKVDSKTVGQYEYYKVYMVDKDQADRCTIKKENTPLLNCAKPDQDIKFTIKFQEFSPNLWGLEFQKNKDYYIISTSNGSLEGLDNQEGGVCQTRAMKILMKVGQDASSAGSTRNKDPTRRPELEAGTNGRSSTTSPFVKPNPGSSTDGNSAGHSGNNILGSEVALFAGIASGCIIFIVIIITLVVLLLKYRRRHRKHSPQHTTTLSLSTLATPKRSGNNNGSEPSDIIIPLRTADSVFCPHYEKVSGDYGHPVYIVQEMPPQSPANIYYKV

Molecule | MIC (E. coli ER2420/pACYC177) [µg/mL] | killing action detected by delta-Ct for PMA treatment [3] | further results
NC(=O)c1ncn([C@@H]2O[C@H](CO)[C@@H](O)[C@H]2O)n1 [Ribavirin] |  |  | IC50 values for several alphaviruses (alphaviruses): low micromolar range; circulation half-life [1]: < 48 h
CC1(C)S[C@@H]2[C@H](NC(=O)[C@H](N)c3ccc(O)cc3)C(=O)N2[C@H]1C(=O)O [amoxicillin] | > 128 | in the susceptible strain (pACYC184) and not in the resistant strain (pACYC177) | half-life in aqueous media/solution [2]: on the order of a few hours
CO/N=C(\C(=O)N[C@@H]1C(=O)N2C(C(=O)O)=C(COC(C)=O)CS[C@H]12)c1csc(N)n1 [cefotaxime] |  | in both strains | 
O=C(O)c1cn(C2CC2)c2cc(N3CCNCC3)c(F)cc2c1=O [ciprofloxacin] | < 0.031 | rapidly bactericidal to both E. coli at low concentrations | 
O=C(O)[C@H]1/C(=C/CO)O[C@@H]2CC(=O)N21 [clavulanic acid] |  |  | half-life in aqueous media/solution [2]: a few hours
NC[C@H]1O[C@H](O[C@H]2[C@H](O)[C@@H](O[C@H]3O[C@H](CO)[C@@H](O)[C@H](N)[C@H]3O)[C@H](N)C[C@@H]2N)[C@H](O)[C@@H](O)[C@@H]1O [kanamycin] | > 256 |  | 
CO[C@H]1/C=C/O[C@@]2(C)Oc3c(C)c(O)c4c(O)c(c(/C=N/N5CCN(C)CC5)c(O)c4c3C2=O)NC(=O)/C(C)=C\C=C\[C@H](C)[C@H](O)[C@@H](C)[C@@H](O)[C@@H](C)[C@H](OC(C)=O)[C@@H]1C [rifampicin] | 8 (≈ 9.72 µM) |  | 
B1 |  |  | fold increase in selective binding and internalization [4]: 100 fold
